According to PubChem BioAssay (NCI):
Several values for one entry are separate records, joined by “and”; a condition that tells them apart may be missing. Equal values may be shown once.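 96-well plates; 48 h exposure; 5 concentrations. Endpoints by linear interpolation between flanking doses. Not reached: highest tested concentration assigned. Abbreviation: GI50, concentration required for 50% inhibition of growth. TGI is the concentration that stops growth completely.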

System: MDA-MB-468 breast
Experiment: inhibition of tumour cell growth, NCI panel, 48 h

Oc1ccc(/C=N/Nc2nc3ccccc3s2)c(O)c1
GI50: 2.08 µM
TGI: 8.4 µM

CC[C@H](Nc1nc(N)nc(N)c1Cl)c1nc2cccc(NCc3ccc(C(=O)NO)cc3)c2c(=O)n1-c1ccccc1
GI50: 1.5 µM
TGI: 3.42 µM

COc1cnc2c(c1)C(=O)c1c-2n(CCCN2CCNCC2)c(=O)c2cc(Cl)ccc12
GI50: 0.552 µM
TGI: 2.2 µM

CCCCN(CCCC)CC(C)(C)C(O)c1ccc(OC)c2ccccc12 (stereo not given)
GI50: 1.56 µM
TGI: 3.97 µM

Oc1ccc(Br)cc1/C=N/NC(=S)NC12CC3CC(CC(C3)C1)C2
GI50: 1.8 µM
TGI: 4.77 µM

CC[C@@H](C)[C@H]([C@H](CC(=O)N1CCC[C@@H]1[C@@H](OC)[C@H](C)C(=O)N[C@H](Cc1ccccc1)c1nccs1)OC)N(C)C(=O)[C@H](NC(=O)[C@@H](C(C)C)N(C)C)C(C)C
TGI: 67.2 µM

COc1cccc(Cn2cc3c(c2)-c2oncc2CC3)c1
GI50: 0.196 µM
TGI: 0.582 µM

COc1ccc(NC(=O)Nc2ccc(Nc3nc(C)cc(Nc4ccc(C)cc4)n3)cc2)cc1
GI50: 1.58 µM
TGI: 3.1 µM

COC(=O)c1c2c(c(C)[n+]([O-])c1C)C(=O)C(NCc1cccc(OC)c1)=CC2=O
GI50: 1.52 µM
TGI: 3.84 µM

N=C(N)c1ccc(-c2ccc(-c3ccc(Cl)cn3)s2)cc1
GI50: 1.6 µM
TGI: 3.41 µM

COc1cc(-c2nn(C(=O)NS(=O)(=O)c3ccc(C)cc3)cc2-c2ccncc2)ccc1Cl
GI50: 2.91 µM
TGI: 19.8 µM

C=CC[Se]C(=O)Cc1c(C)n(C(=O)c2ccc(Cl)cc2)c2ccc(OC)cc12
GI50: 1.87 µM
TGI: 3.74 µM

CCCC[P+](c1ccccc1)(c1ccccc1)c1ccccc1
GI50: 0.219 µM
TGI: 2.37 µM

Cc1ccccc1-n1c(/C=C\c2ccccn2)nc2ccccc2c1=O
GI50: 3.61 µM
TGI: 32.2 µM

CCCCCC(=O)OCC(=O)O[C@@H]1C[C@]2(C(C)C)O[C@@]1(C)[C@@H]1CC[C@@H](C)[C@H]1[C@@H]2OC(=O)/C=C/c1ccccc1
GI50: 27 µM
TGI: > 76.9 µM

CCCCCCNC(=O)Oc1ccc(/C(=C(\C)c2ccccc2)c2ccc(OCCN3CCCCC3)cc2)cc1
GI50: 1.74 µM
TGI: 5.17 µM

COc1cc(C2CC(c3ccc4c(c3)OCO4)=NN2C(C)=O)cc(OC)c1OC (stereo not given)
GI50: 0.289 µM
TGI: 1.71 µM

CN(C)CCOC1(Cc2ccc(Cl)cc2Cl)CCC(C(C)(C)C)CC1 (stereo not given)
GI50: 1.78 µM and 1.77 µM
TGI: 3.47 µM and 3.49 µM

O=C(CC1(O)C(=O)Nc2ccc(Br)cc21)c1ccc(C(=O)NCC2CCC3(CC2)OOC2(CCCCC2)OO3)cc1 (stereo not given)
GI50: 3.13 µM
TGI: 20.3 µM

COc1ccc(NC(=O)c2sc3nc(C)c(C(O)c4ccc(OC)cc4)cc3c2N)cc1 (stereo not given)
GI50: 0.145 µM
TGI: 1.61 µM

O=C(Nc1cccc2cccnc12)c1ccc(N2C(=O)[C@@H]3[C@H](C2=O)[C@@H]2C=C[C@H]3C2)cc1
GI50: 14.2 µM
TGI: 81.4 µM

CN(Cc1ccccc1)S(=O)(=O)/N=C1\NC(=O)NC1=C(Cl)Cl
GI50: 0.427 µM
TGI: 12.8 µM

CCCC(=O)NC(c1ccc2c(c1)OCO2)c1ccc2cccnc2c1O (stereo not given)
GI50: 0.388 µM
TGI: 2.53 µM

Cc1[nH]nc2c1N=C(c1ccccc1F)c1cc(C#N)ccc1N2
GI50: 0.0932 µM
TGI: 7.2 µM

COc1ccccc1CNC(=O)C1c2ccccc2C(=O)N(CC(C)C)C1c1cccs1 (stereo not given)
GI50: 12 µM
TGI: 60.5 µM

COc1cc(-c2nc(SCC(=O)Nc3ccc(C(C)=O)cc3)[nH]c(=O)c2C#N)cc(OC)c1OC
GI50: 25.4 µM
TGI: > 100 µM

BrC(Br)(Br)c1cnc2ccccc2n1
GI50: 1.15 µM
TGI: 2.76 µM

COc1ccc(C2C(c3ccccc3)C(=O)N2c2cc(OC)c(OC)c(OC)c2)cc1I (stereo not given)
GI50: 0.373 µM
TGI: > 100 µM

COc1cc2nc(-c3ccc(-n4cncc4-c4ccc(N)cc4)cc3)sc2c(OC)c1OC
GI50: 1.82 µM
TGI: 4.47 µM

CCCC1CCC(O)(C(C)(O)C(=O)NC2C(=O)N3NCCCC3C(=O)N(O)C(C)C(=O)N3NCCCC3C(=O)N3NCC(O)CC3C(=O)NC(C)C(=O)OC2C(C)C)OC1CC (stereo not given)
GI50: > 25 µM
TGI: > 25 µM

COC(=O)[C@@H](Cc1c[nH]c2ccccc12)NC(=O)/C=C/c1ccccc1
GI50: 2.57 µM
TGI: 25.9 µM

O=C(NCCCNC(=O)OCc1ccc2c(Br)cc(Br)c(O)c2n1)OCc1ccc2c(Br)cc(Br)c(O)c2n1
GI50: > 100 µM
TGI: > 100 µM

O=C(O)c1ccc(-c2ccc(C(=O)O)cc2I)c(I)c1
GI50: > 100 µM
TGI: > 100 µM

COc1ccc2[nH]c(-c3cccc(N(C)C)c3)cc(=O)c2c1
GI50: 13.3 µM
TGI: > 100 µM

COc1cccc2c1cc([N+](=O)[O-])c1c(C(=O)O)cc3c(c12)OCO3
GI50: 8.57 µM
TGI: 26.1 µM

CC(C)c1cc(CNc2nc(Nc3cc(C4CC4)[nH]n3)cc(N3CCN(C)CC3)n2)on1
GI50: 1.3 µM
TGI: 5.5 µM and 2.2 µM

CN(C)CCOc1nc2c3cccnc3cc(-c3cccc(Cl)c3)c2c2ncccc12
GI50: 1.43 µM
TGI: 2.86 µM

CS(=O)c1ccc(-c2nc(-c3ccc(F)cc3)c(-c3ccncc3)[nH]2)cc1 (stereo not given)
GI50: 13.4 µM
TGI: > 60.6 µM

O=C1C=CN(C2OC(CO)C(O)C2O)C(=O)C1 (stereo not given)
GI50: > 2500 µM
TGI: > 2500 µM

O=C(NCCN1CCOCC1)Nc1ccc(-c2cc3c(Nc4ccc(Oc5cccc(C(F)(F)F)c5)c(Cl)c4)ncnc3s2)cc1
GI50: 1 µM
TGI: 2.5 µM

CCOC(=O)N1C/C(=C/c2ccc(OC)cc2)C(=O)/C(=C/c2ccc(OC)cc2)C1
GI50: 1.54 µM
TGI: 4.04 µM

NC(N)=N/N=C/c1cccc(Cl)c1Cl
GI50: 1.52 µM
TGI: 3.24 µM

CC(F)(F)c1cc(F)ccc1-c1sc2cc(O)ccc2c1Oc1ccc(/C=C/C(=O)O)cc1
GI50: 5.94 µM
TGI: 43.4 µM

C[C@@]1(c2ncncc2F)NC(=O)c2cc(-c3cn[nH]c3)ccc21
GI50: 21.6 µM
TGI: 51.5 µM

Cc1ccc(S(=O)(=O)NC(CCC(=O)Nc2ccccc2)C(=O)Nc2ccccc2)cc1 (stereo not given)
GI50: 0.289 µM
TGI: 1.13 µM

CCn1c(-c2nonc2N)nc2c(C#CC(C)(C)O)nc(O[C@@H](CN)c3ccccc3)cc21
GI50: 0.0173 µM
TGI: 0.435 µM

O=C1/C(=C/c2ccc([N+](=O)[O-])s2)Oc2ccccc21
GI50: 0.39 µM
TGI: 2.17 µM

CN1CCN(Cc2ccc(NC(=O)c3[nH]ncc3Nc3ncnc4sccc34)cc2)CC1
GI50: 0.38 µM
TGI: 2.56 µM
